Test system: Human epidermal keratinocytes (HEKn)
Assay: Gene expression of differentiation markers, quantitative RT-PCR
Format: cell-based
Conditions: 8 h, FIG. 7A, compared to 20S(OH)D3
Method: RNA isolation and reverse transcription were performed as described previously (Slominski A T, et. al., (2021) Sci Rep 11(1) 8002). Quantitative RT-PCR was carried out using Sybr green Master Mix (Thermo Scientific, Waltham, MA), in triplicates as previously described (Slominski A T, et. al., (2021) Sci Rep 11(1) 8002; Janjetovic Z, et. al., (2014) J Pineal Res 57(1) 90-102). Human epidermal keratinocytes (HEKn) isolated from foreskin of white neonates were cultured until the third passage before treatment as described in the literature (Chaiprasongsuk A, et. al., (2019) Redox Biol 24 101206; Janjetovic Z, et. al., (2009) PloS one 4(6) e5988). Cells were treated with vitamin D3 derivatives for 8 h or 24 h and harvested for RNA isolation. Approximately 300 ng of RNA was used for cDNA synthesis and an equal amount of cDNA was used for PCR reactions. Cyclophilin B or GAPDH was used as an internal control. Primers sequences are listed in (Chaiprasongsuk A, et. al., (2020) Free Radic Biol Med 155 87-9845, Slominski A T, et. al., (2017) Sci Rep 7(1) 11434). Reactions were done in triplicate.
Referring to FIG. 7A-D, stimulation of keratinocyte differentiation by 20S(OH)D3, 20S,25(OH)2D3, 20S,23S(OH)2D3 and 20S,23R(OH)2D3 in comparison to 1α,25(OH)2D3. […]

## C=C1CC[C@H](O)C/C1=C/C=C1\CCC[C@@]2(C)[C@H]1CC[C@@H]2[C@@](C)(O)CCCC(C)(C)O [20S,25(OH)2D3, (20S)-20,25-Dihydroxyvitamin D3]
  gene expression of involucrin, CK10, and filaggrin: slightly better at inducing gene expression of involucrin, CK10, and filaggrin

Source: patent US20240327320A1, “NOVEL ROUTES OF CHEMICAL SYNTHESIS OF 20S(OH)D3, 20S,25(OH)2D3, 20S,23S(OH)2D3, AND 20S,23R(OH)2D3 AND THEIR MODIFICATION OF THE IMMUNE ACTIVITY OF PBMCS” (United State Government as represen ted by the Department …, priority 2023, published 2024)
